We go through 22 compounds from patent US20100041892A1, “Therapeutic agent for diabetes” (priority 2005, published 2010).

Broadly, the melting point is the temperature of the solid-liquid transition.

Where a name gives a salt, the structure may show the parent alone.

Regarding `CCCCCS(=O)(=O)NC(=O)/C=C/c1ccc(OCCO[Si](C(C)C)(C(C)C)C(C)C)cc1Oc1ncc(C(F)(F)F)cc1Cl`, the melting point is 106 to 108 °C.
The same measure for `CCCCCS(=O)(=O)NC(=O)/C=C/c1ccc(OCC(C)(C)O)cc1Oc1ncc(C(F)(F)F)cc1Cl` (as salt: acetate) (hydrate or solvate) [Example 250, (2E)-3-[2-{[3-chloro-5-(trifluoromethyl)pyridin-2-yl]oxy}-4-(2-hydroxy-2-methylpropoxy)phenyl]-N-(pentylsulfonyl)acrylamide]: 98 to 100 °C.
For `CCCCCS(=O)(=O)NC(=O)/C=C/c1ccc(OCCO[Si](c2ccccc2)(c2ccccc2)C(C)(C)C)cc1Oc1ncc(C(F)(F)F)cc1Cl` (hydrate or solvate), the melting point fell in the range of 108 to 108.5 °C.
To `CCCCS(=O)(=O)NC(=O)OCCCc1ccc(OCCOC)cc1Oc1ncc(C(F)(F)F)cc1Cl.O` (hydrate or solvate) belongs 94 to 96 °C.
The same measure for `COCCOc1ccc(CCCOC(=O)NS(=O)(=O)c2ccc(C)cc2)c(Oc2ncc(C(F)(F)F)cc2Cl)c1.O` (hydrate or solvate) [Example 30, 3-[2-{[3-chloro-5-(trifluoromethyl)pyridin-2-yl]oxy}-4-(2-methoxyethoxy)phenyl]propyl [(4-methylphenyl)sulfonyl]carbamate monohydrate]: 118 to 120 °C; for `COCCOc1ccc(/C=C/COC(=O)NS(=O)(=O)c2ccc(Cl)cc2)c(Oc2ncc(C(F)(F)F)cc2Cl)c1.O.O` (hydrate or solvate) [Example 37, (2E)-3-[2-{[3-chloro-5-(trifluoromethyl)pyridin-2-yl]oxy}-4-(2-methoxyethoxy)phenyl]-2-propen-1-yl [(4-chlorophenyl)sulfonyl]carbamate dihydrate]: 174.5 °C (dec.); for `CC(C)Oc1ccc(CCC(=O)NS(=O)(=O)c2ccccc2)c(Oc2ncc(C(F)(F)F)cc2Cl)c1` [Example 4, 3-(2-{[3-chloro-5-(trifluoromethyl)pyridin-2-yl]oxy}-4-isopropoxyphenyl)-N-(phenylsulfonyl)propanamide]: 129 to 129.5 °C.
The same measure for `COCCOc1ccc(CCC(=O)NS(=O)(=O)c2ccc(OC)cc2)c(Oc2ncc(C(F)(F)F)cc2Cl)c1` [Example 7, 3-[2-{[3-chloro-5-(trifluoromethyl)pyridin-2-yl]oxy}-4-(2-methoxyethoxy)phenyl]-N-[(4-methoxyphenyl)sulfonyl]propanamide]: 118 to 120 °C.
Compound `COCCOc1ccc(CCC(=O)NS(=O)(=O)c2ccc(F)cc2)c(Oc2ncc(C(F)(F)F)cc2Cl)c1` [Example 11, 3-[2-{[3-chloro-5-(trifluoromethyl)pyridin-2-yl]oxy}-4-(2-methoxyethoxy)phenyl]-N-[(4-fluorophenyl)sulfonyl]propanamide] displayed a melting point of 136 to 138 °C.
To `COCCOc1ccc(CCCNS(C)(=O)=O)c(Oc2ncc(C(F)(F)F)cc2Cl)c1` [Example 15, N-{3-[2-{[3-chloro-5-(trifluoromethyl)pyridin-2-yl]oxy}-4-(2-methoxyethoxy)phenyl]propyl}methanesulfonamide] belongs 89 to 90 °C; to `COCCOc1ccc(CCCNS(=O)(=O)c2ccccc2)c(Oc2ncc(C(F)(F)F)cc2Cl)c1` [Example 16, N-{3-[2-{[3-chloro-5-(trifluoromethyl)pyridin-2-yl]oxy}-4-(2-methoxyethoxy)phenyl]propyl}benzenesulfonamide], 94 to 95 °C; to `COCCOc1ccc(CCCNS(=O)(=O)Cc2ccccc2)c(Oc2ncc(C(F)(F)F)cc2Cl)c1` [Example 19, N-{3-[2-{[3-chloro-5-(trifluoromethyl)pyridin-2-yl]oxy}-4-(2-methoxyethoxy)phenyl]propyl}-1-phenylmethanesulfonamide], 97 to 100 °C.
Regarding `COCCOc1ccc(CCCNS(=O)(=O)CCCc2ccccc2)c(Oc2ncc(C(F)(F)F)cc2Cl)c1` [Example 21, N-{3-[2-{[3-chloro-5-(trifluoromethyl)pyridin-2-yl]oxy}-4-(2-methoxyethoxy)phenyl]propyl}-3-phenylpropane-1-sulfonamide], the melting point lay in the range of 101.8 to 102 °C.
To `COCCOc1ccc(CCCNS(=O)(=O)c2ccc(Cl)cc2)c(Oc2ncc(C(F)(F)F)cc2Cl)c1` [Example 22, 4-chloro-N-{3-[2-{[3-chloro-5-(trifluoromethyl)pyridin-2-yl]oxy}-4-(2-methoxyethoxy)phenyl]propyl}benzenesulfonamide] belongs 111 to 113 °C; to `COCCOc1ccc(CCCNS(=O)(=O)c2cccc(Cl)c2)c(Oc2ncc(C(F)(F)F)cc2Cl)c1` [Example 24, 3-chloro-N-{3-[2-{[3-chloro-5-(trifluoromethyl)pyridin-2-yl]oxy}-4-(2-methoxyethoxy)phenyl]propyl}benzenesulfonamide], 110 to 114 °C; to `CCCCCS(=O)(=O)NC/C=C/c1ccc(OCCOC)cc1Oc1ncc(C(F)(F)F)cc1Cl` [Example 27, N-{(2E)-3-[2-{[3-chloro-5-(trifluoromethyl)pyridin-2-yl]oxy}-4-(2-methoxyethoxy)phenyl]-2-propen-1-yl}pentane-1-sulfonamide], 106 to 106.5 °C.
In turn, `COCCOc1ccc(CCCNS(=O)(=O)c2ccccc2[N+](=O)[O-])c(Oc2ncc(C(F)(F)F)cc2Cl)c1` [Example 29, N-{3-[2-{[3-chloro-5-(trifluoromethyl)pyridin-2-yl]oxy}-4-(2-methoxyethoxy)phenyl]propyl}-2-nitrobenzenesulfonamide] registered a melting point of 125.5 to 126 °C.
To `CC(C)Oc1cc(CCCNC(=O)NS(=O)(=O)c2ccccc2)n(Cc2ccc(Cl)cc2Cl)n1` [Example 39, N-[({3-[1-(2,4-dichlorobenzyl)-3-isopropoxy-1H-pyrazol-5-yl]propyl}amino)carbonyl]benzenesulfonamide] belongs 149 °C.
To `CCCCCS(=O)(=O)NCC(C)Cc1ccc(OCCOC)cc1Oc1ncc(C(F)(F)F)cc1Cl` (stereo not shown) [Example 41, N-{3-[2-{[3-chloro-5-(trifluoromethyl)pyridin-2-yl]oxy}-4-(2-methoxyethoxy)phenyl]-2-methylpropyl}pentane-1-sulfonamide] belongs 80 to 82 °C; to `CCCCCS(=O)(=O)NC(=O)CCc1ccc(OC(C)C)cc1OCc1ccc(Cl)cc1Cl` [Example 42, 3-{2-[(2,4-dichlorobenzyl)oxy]-4-isopropoxyphenyl}-N-(pentylsulfonyl)propanamide], 120 to 120.5 °C.
The same measure for `COCCOc1ccc(CCC(=O)NS(=O)(=O)CCC(C)C)c(Oc2ncc(C(F)(F)F)cc2Cl)c1` [Example 43, 3-[2-{[3-chloro-5-(trifluoromethyl)pyridin-2-yl]oxy}-4-(2-methoxyethoxy)phenyl]-N-[(3-methylbutyl)sulfonyl]propanamide]: 130 to 132 °C; for `CCN(CC)C(=O)COc1ccc(CCC(=O)NS(=O)(=O)CCC(C)C)c(Oc2ncc(C(F)(F)F)cc2Cl)c1` [Example 45, 3-{2-{[3-chloro-5-(trifluoromethyl)pyridin-2-yl]oxy}-4-[2-(diethylamino)-2-oxoethoxy]phenyl}-N-[(3-methylbutyl)sulfonyl]propanamide]: 123 to 125 °C.
